Measurements from EPA's ToxRefDB 2.

How the values were obtained:
[1] = tested on: rat; settings: Developmental neurotoxicity study; wistar; Injection; Subcutaneous; dose end: 42 PND; group: cannot be grouped; developmental / developmental malformation / general / crown-rump length + developmental / offspring survival late / [other] / [other] + …
[2] = tested on: mouse; settings: Developmental neurotoxicity study; other; Oral; [Not Specified]; dose end: 90 PND; group: cannot be grouped; systemic / in life observation / body weight / offspring (pup) weight gain + systemic / in life observation / clinical signs / convulsions
[3] = tested on: rat; settings: Developmental neurotoxicity study; wistar; Oral; Water; dose end: 60 PND; group: cannot be grouped; systemic / in life observation / body weight / offspring (pup) weight
[4] = tested on: rat; settings: Developmental neurotoxicity study; wistar; Injection; Subcutaneous; dose end: 68 PND; group: cannot be grouped; developmental / offspring survival late / [other] / [other] + systemic / hematology / leukocyte (wbc) count differential / leukocyte (wbc…
[5] = tested on: rabbit; settings: Prenatal developmental toxicity study; new zealand white; Oral; Gavage/Intubation; dose end: 19 GD; group: maternal; systemic / in life observation / body weight / body weight + systemic / in life observation / clinical signs / [other] + systemic / in life …
[6] = tested on: rat; settings: Chronic toxicity; sprague dawley; Oral; Feed; dose end: 78 week; group: systemic; systemic / clinical chemistry / glucose / glucose + systemic / in life observation / body weight / body weight gain + systemic / in life …
[7] = tested on: rat; settings: Carcinogenicity; sprague dawley; Oral; Feed; dose end: 104 week; group: systemic; systemic / clinical chemistry / glucose / glucose + systemic / in life observation / body weight / body weight gain + systemic / in life …

N[C@@H](CCC(=O)O)C(=O)[O-].[Na+] [Sodium l-glutamate]
LEL [1]: 0.004 mg/kg/day
LOAEL [1]: > 0.004 mg/kg/day
NEL [1]: < 0.004 mg/kg/day
NOAEL [1]: ≥ 0.004 mg/kg/day
LEL [2]: 2.5 mg/kg/day
LOAEL [2]: > 4 mg/kg/day
NEL [2]: < 2.5 mg/kg/day
NOAEL [2]: ≥ 4 mg/kg/day
LEL [3]: 10000 mg/kg/day
NEL [3]: < 10000 mg/kg/day
NOAEL [3]: ≥ 10000 mg/kg/day
LOAEL [4]: > 4000 mg/kg/day
NEL [4]: < 4000 mg/kg/day
NOAEL [4]: ≥ 4000 mg/kg/day

OC[C@H]1O[C@H](O[C@]2(CCl)O[C@H](CCl)[C@@H](O)[C@@H]2O)[C@H](O)[C@@H](O)[C@H]1Cl [Sucralose]
LEL [5]: 700 mg/kg/day
LOAEL [5]: > 700 mg/kg/day
NEL [5]: 350 mg/kg/day
NOAEL [5]: ≥ 700 mg/kg/day
LEL [6]: 150 mg/kg/day
LOAEL [6]: > 15000 mg/kg/day
NEL [6]: < 150 mg/kg/day
NOAEL [6]: ≥ 15000 mg/kg/day
LEL [7]: 150 mg/kg/day
NEL [7]: < 150 mg/kg/day
NOAEL [7]: ≥ 15000 mg/kg/day
